This passage reports IC50 and melting point results from patent US20080312435A1, “Imine Compound” (TAISHO PHARMACEUTICAL CO., LTD., priority 2004, published 2008).

The term IC50 denotes the concentration needed to halve the response being measured. One may read the melting point as the temperature, or range, at which the solid turns liquid.

SMILES strings stand for the structures.

For series [1], the target named is T1, human CB1 receptor (Homo sapiens, UniProt P21554).
T1 construct: expressed in transfected cells
As to the kind of experiment: Human CB1 receptor binding inhibition test. The conditions noted are these: CHO-DHFR(−) cells stably expressing human CB1 receptor, same manner as Experimental Example 1. As to the method: Human CB1 Receptor Binding Inhibition Test
The CHO-DHFR(−) cells capable of stably expressing a CB1 receptor were prepared in the same manner as in Experimental Example 1. The binding test to the human CB1 receptor was performed to obtain 50% inhibitory concentration (IC50 value) of a test compound.

The target of series [2] is T2, human CB2 receptor (Homo sapiens, UniProt P34972).
T2 construct: expressed in transfected cells
As to the kind of experiment: Human CB2 receptor binding inhibition test ([3H]CP-55,940, CHO membrane fractions). The note with it: [3H]CP-55,940, membrane fractions of CHO cells stably expressing human CB2 receptor, 25° C., 2 hours; read-out: CB2 IC50 (Inhibition of binding to human CB2 receptor). The gist of the method:
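Membranes from CHO-DHFR(−) cells stably expressing human CB2 used for [3H]CP-55,940 binding; filter-bound radioactivity counted by scintillation after washes with 0.1% BSA buffer. Nonspecific binding defined with 2.0 μM CP-55,940; IC50 for inhibition of specific binding.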

T2 sequence (P34972 whole entry): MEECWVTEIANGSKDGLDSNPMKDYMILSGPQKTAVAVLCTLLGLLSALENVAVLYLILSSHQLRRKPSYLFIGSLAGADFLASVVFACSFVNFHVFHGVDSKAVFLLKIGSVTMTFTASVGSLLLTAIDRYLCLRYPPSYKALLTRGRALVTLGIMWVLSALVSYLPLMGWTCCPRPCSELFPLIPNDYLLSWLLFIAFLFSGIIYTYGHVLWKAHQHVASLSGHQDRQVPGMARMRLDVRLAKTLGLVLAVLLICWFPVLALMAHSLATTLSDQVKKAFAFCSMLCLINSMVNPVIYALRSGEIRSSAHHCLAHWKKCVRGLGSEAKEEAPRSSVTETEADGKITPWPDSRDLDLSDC
T1 sequence (P21554 whole entry): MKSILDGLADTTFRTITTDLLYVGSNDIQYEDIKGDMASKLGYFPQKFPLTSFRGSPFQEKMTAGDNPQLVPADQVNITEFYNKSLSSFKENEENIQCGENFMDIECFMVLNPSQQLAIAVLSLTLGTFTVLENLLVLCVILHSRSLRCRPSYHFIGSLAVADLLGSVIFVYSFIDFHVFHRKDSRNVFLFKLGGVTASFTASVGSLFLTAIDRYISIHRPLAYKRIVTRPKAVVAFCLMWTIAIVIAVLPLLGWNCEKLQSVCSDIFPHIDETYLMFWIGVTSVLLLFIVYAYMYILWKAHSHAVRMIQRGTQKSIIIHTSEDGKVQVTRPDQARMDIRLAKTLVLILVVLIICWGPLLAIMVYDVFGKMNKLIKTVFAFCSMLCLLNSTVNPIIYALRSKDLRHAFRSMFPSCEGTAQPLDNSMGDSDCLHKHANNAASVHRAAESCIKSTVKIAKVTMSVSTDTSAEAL

Turning to `Cc1ccccc1C(=O)/N=c1\sc(C(C)(C)C)c(C)n1CC1CC1` [compound 180], the 50% inhibitory concentration (IC50) in series [1] is 395 nM; in series [2], 1 nM.
In the case of `Cc1c(C(C)(C)C)s/c(=N\C(=O)c2ccccc2Cl)n1CC1CC1` [compound 186], the IC50 in series [1] was found to be 271 nM; in series [2] it was 1.7 nM.
For `Cc1c(C(C)(C)C)s/c(=N\C(=O)c2ccccc2Br)n1CC1CC1` [compound 189], the IC50 in series [1] stood at 212 nM; in series [2], 1.5 nM.
Taken in the same sequence, the figures for `Cc1c(C(C)(C)C)s/c(=N\C(=O)c2ccccc2I)n1CC1CC1` [compound 191] were 193 nM and 0.7 nM.
With `Cc1c(C(C)(C)C)s/c(=N\C(=O)c2ccccc2N2CCOCC2)n1CC1CC1` [compound 206], the IC50 in series [1] worked out at 460 nM; in series [2] it was 5.7 nM.
Taken in the same sequence, the figures for `COc1ccc(C(=O)/N=c2\sc(C(C)(C)C)c(C)n2CC2CC2)c(OC)c1` [compound 236] were 215 nM and 2 nM.
`CCOc1ccc(C(F)(F)F)cc1C(=O)/N=c1\sc(C(C)(C)C)c(C)n1CC1CC1` [compound 268] registered a melting point of 140 to 142 °C. In addition, the IC50 in series [2] is 1.1 nM.
Taken in the same sequence, the figures for `Cc1c(C(C)(C)C)s/c(=N\C(=O)c2cc(C(F)(F)F)ccc2OC(C)C)n1CC1CC1` [compound 269] were 106 to 108 °C and 3.6 nM.
Taken in the same sequence, the figures for `COCCOc1ccc(C(F)(F)F)cc1C(=O)/N=c1\sc(C(C)(C)C)c(C)n1CC1CC1` [compound 270] were 108 to 110 °C and 0.7 nM.
In turn, `Cc1c(C(C)(C)C)s/c(=N\C(=O)C2=C(NCCO)C=CC(C(F)(F)F)C2)n1CC1CC1` (stereo not drawn) [compound 272] returned a melting point of 131 to 133 °C. Besides, in series [2], the half-inhibitory concentration (IC50) turned out to be 5 nM.
In the same order, the values of `CCN(C)c1ccc(C(F)(F)F)cc1C(=O)/N=c1\sc(C(C)(C)C)c(C)n1CC1CC1` [compound 274] are 101 to 103 °C and 13.2 nM.
In turn, `Cc1c(C(C)(C)C)s/c(=N\C(=O)c2cc(C(F)(F)F)ccc2N(C)C)n1CC1CC1` [compound 277] gave a melting point of 126 to 128 °C. In addition, the IC50 in series [2] turned out to be 9 nM.
`Cc1c(C(C)(C)C)s/c(=N\C(=O)c2ccc(F)c(F)c2F)n1CC1CC1` [compound 282] displayed a melting point of 82 to 84 °C. For the same compound, the IC50 in series [2] was 14.5 nM.
Taken in the same sequence, the figures for `Cc1c(C(C)(C)C)s/c(=N\C(=O)c2cc(F)c(F)cc2F)n1CC1CC1` [compound 283] were 78 to 79 °C and 5.9 nM.
In the same order, the values of `Cc1c(C(C)(C)C)s/c(=N\C(=O)c2cc(F)c(F)cc2Cl)n1CC1CC1` [compound 284] are 112 to 114 °C and 1.2 nM.
With `Cc1c(C(C)(C)C)s/c(=N\C(=O)c2ccc(F)c(Cl)c2F)n1CC1CC1` [compound 285], the melting point lay within 76 to 77 °C. Also, the IC50 in series [2] was 14.2 nM.
Taken in the same sequence, the figures for `Cc1ccc(C(=O)/N=c2\sc(C(C)(C)C)c(C)n2CC2CC2)c(F)c1F` [compound 287] were 122 to 124 °C and 13.5 nM.
`Cc1cccnc1C(=O)/N=c1\sc(C(C)(C)C)c(C)n1CC1CC1` [compound 293] yielded a melting point of 88 to 89 °C. Besides, the half-maximal inhibitory concentration (IC50) in series [2] was determined as 7 nM.
Compound `Cc1c(C(C)(C)C)s/c(=N/C(=O)c2cnccc2C(F)(F)F)n1CC1CC1` [compound 298] had a melting point of 74 to 76 °C. Besides, the IC50 in series [2] turned out to be 1.5 nM.
Taken in the same sequence, the figures for `Cc1c(C(C)(C)C)s/c(=N/C(=O)c2cccnc2F)n1CC1CC1` [compound 300] were 83 to 84 °C and 15 nM.
`Cc1c(C(C)(C)C)s/c(=N\C(=O)c2nccnc2Cl)n1CC1CC1` [compound 305] showed a melting point of 115 to 116 °C. The IC50 in series [2] worked out at 3.7 nM.
In the same order, the values of `Cc1c(C(C)(C)C)s/c(=N\C(=O)c2cc(Cl)ncc2Cl)n1CC1CC1` [compound 307] are 110 to 112 °C and 1 nM.
In the same order, the values of `CCOc1ncccc1C(=O)/N=c1\sc(C(C)(C)C)c(C)n1CC1CC1` [compound 310] are 102 to 104 °C and 17.3 nM.
`CSc1ncccc1C(=O)/N=c1\sc(C(C)(C)C)c(C)n1CC1CC1` [compound 312] gave a melting point of 138 to 139 °C. Besides, the half-inhibitory concentration (IC50) in series [2] came out at 14 nM.
In turn, `Cc1nc(F)ccc1C(=O)/N=c1\sc(C(C)(C)C)c(C)n1CC1CC1` [compound 316] had a melting point of 67 to 69 °C. Further, the IC50 in series [2] stood at 5.3 nM.
In the case of `Cc1c(C(C)(C)C)s/c(=N\C(=O)c2ccc([N+](=O)[O-])o2)n1CC1CC1` [compound 319], the melting point is 129 to 130 °C. Further, the IC50 in series [2] is 18.6 nM.
`Cc1c(C(C)(C)C)s/c(=N\C(=O)c2ccc3nonc3c2)n1CC1CC1` [compound 320] displayed a melting point of 139 to 141 °C. For the same compound, the half-maximal inhibitory concentration (IC50) in series [2] was 6.2 nM.
In the same order, the values of `Cc1c(C(C)(C)C)s/c(=N\C(=O)c2cccc3cnccc23)n1CC1CC1` [compound 321] are 109 to 110 °C and 2.3 nM.
For `Cc1c(C(C)(C)C)s/c(=N\C(=O)c2cccc3cccnc23)n1CC1CC1` [compound 322], the melting point lay within 193 to 195 °C. Further, the IC50 in series [2] stood at 5.6 nM.
The compound `Cc1c(C(C)(C)C)s/c(=N\C(=O)c2cnnc3ccccc23)n1CC1CC1` [compound 325] registered a melting point of 140 to 141 °C. The IC50 in series [2] was 13 nM.
Compound `Cc1c(C(C)(C)C)s/c(=N\C(=O)c2cc3sccc3nc2C(F)(F)F)n1CC1CC1` [compound 328] had a melting point of 147 to 149 °C. Further, in series [2], the half-maximal inhibitory concentration (IC50) came out at 11.8 nM.
In the case of `Cc1c(C(C)(C)C)s/c(=N\C(=O)C(C)(C)C)n1CC1CC1` [compound 330], the melting point was in the range of 102 to 104 °C. The IC50 in series [2] was 13.8 nM.
In turn, `Cc1c(C(C)(C)C)s/c(=N\C(=O)CCC(F)(F)F)n1CC1CC1` [compound 335] showed a melting point of 102 to 103 °C. The IC50 in series [2] was determined as 5.5 nM.
`Cc1c(C(C)(C)C)s/c(=N\C(=O)C(F)(F)C(F)(F)C(F)(F)F)n1CC1CC1` [compound 336] returned a melting point of 147 to 148 °C. Further, in series [2], the IC50 came to 2.9 nM.
Compound `COCCn1c(C)c(C(C)(C)C)s/c1=N\C(=O)C(F)(F)C(F)(F)C(F)(F)F` [compound 338] had a melting point of 69 to 71 °C. Also, the IC50 in series [2] is 9.1 nM.
Taken in the same sequence, the figures for `CC(=O)OC(C(=O)/N=c1\sc(C(C)(C)C)c(C)n1CC1CC1)c1ccccc1` (stereo not drawn) [compound 341] were 147 to 148 °C and 5.3 nM.
On to `COCCn1c(C)c(C(C)(C)C)s/c1=N\C(=O)c1cccc(C(F)(F)F)c1` [compound 344], for which the melting point was in the range of 172 to 173 °C. Further, in series [2], the 50% inhibitory concentration (IC50) was found to be 12.2 nM.
In turn, `COCCn1c(C)c(C(C)(C)C)s/c1=N\C(=O)c1cccc(Br)c1` [compound 345] returned a melting point of 89 to 91 °C. The half-maximal inhibitory concentration (IC50) in series [2] was determined as 12.7 nM.
Compound `COCCn1c(C)c(C(C)(C)C)s/c1=N\C(=O)c1cccc(I)c1` [compound 346] registered a melting point of 119 to 121 °C. The IC50 in series [2] turned out to be 13.5 nM.
In the same order, the values of `COCCn1c(C)c(C(C)(C)C)s/c1=N\C(=O)c1cc(Br)ccc1F` [compound 348] are 95 to 97 °C and 3.8 nM.
Taken in the same sequence, the figures for `COCCn1c(C)c(C(C)(C)C)s/c1=N\C(=O)c1cc(F)c(Cl)cc1Cl` [compound 349] were 161 to 163 °C and 1.9 nM.
In the same order, the values of `COCCn1c(C)c(C(C)(C)C)s/c1=N\C(=O)c1cccc(OC(F)(F)C(F)F)c1` [compound 350] are 114 to 116 °C and 5.2 nM.
With `COCCn1c(C)c(C(C)(C)C)s/c1=N\C(=O)c1cc(F)ccc1C` [compound 351], the melting point was 106 to 107 °C. Also, in series [2], the IC50 was 2.2 nM.
`Cc1c(Cl)s/c(=N\C(=O)c2cccc(C(F)(F)F)c2F)n1CC1CC1` [compound 365] showed a melting point of 130 to 132 °C. The 50% inhibitory concentration (IC50) in series [2] was 3.4 nM.
`O=C(/N=c1\sc2ncccc2n1CC1CC1)c1cccc(C(F)(F)F)c1F` [compound 382] had a melting point of 156 to 158 °C. The IC50 in series [2] was found to be 17 nM.
Taken in the same sequence, the figures for `Cn1c(C(C)(C)C)c/c(=N\C(=O)c2cccc(Cl)c2Cl)n1CC1CCC1` [compound 481] were 152.5 to 154 °C and 3.4 nM.
In turn, `Cc1c(C(=O)/N=c2\cc(C(C)(C)C)n(C)n2CC2CCC2)cccc1C(F)(F)F` [compound 483] came in with a melting point of 133 to 134 °C. Moreover, the IC50 in series [2] was 8.3 nM.
`Cn1c(C(C)(C)C)c/c(=N\C(=O)c2cccc(Cl)c2Cl)n1CC1CCCC1` [compound 484] had a melting point of 168 to 169 °C. In addition, the half-maximal inhibitory concentration (IC50) in series [2] was 2.7 nM.
`CCOCCn1/c(=N/C(=O)c2cccc(C(F)(F)F)c2C)cc(C(C)(C)C)n1C` [compound 489] displayed a melting point of 132 to 133 °C. For the same compound, the IC50 in series [2] was 6 nM.
In the same order, the values of `COc1ccc(C(F)(F)F)cc1C(=O)/N=c1\sc(C(C)(C)C)nn1CC1CC1` [compound 509] are 82 to 83 °C and 5.9 nM.
In turn, `CC(C)(C)c1nn(CC2CC2)/c(=N/C(=O)c2cccc(C(F)(F)F)c2F)o1` [compound 514] gave a melting point of 108 to 110 °C. Also, the IC50 in series [2] is 2.6 nM.
